For 16 compounds, Ki results are on record in ChEMBL document CHEMBL1143627, “Enantiomerically pure hexahydropyrazinoquinolines as potent and selective dopamine 3 subtype receptor ligands” (J Med Chem, 2005).

Where only a bound is given, the exact number is not on record here.

One experiment deals with D(2) dopamine receptor (Rattus norvegicus, UniProt P61169). Description: Inhibition of [3H]spiperone binding to Dopamine receptor D2-like in rat caudate-putamen membrane. It is filed as cell membranes.
A further experiment addresses D(3) dopamine receptor (Rattus norvegicus, UniProt P19020). Description: biochemical.

Chain of D(3) dopamine receptor (P19020 whole entry): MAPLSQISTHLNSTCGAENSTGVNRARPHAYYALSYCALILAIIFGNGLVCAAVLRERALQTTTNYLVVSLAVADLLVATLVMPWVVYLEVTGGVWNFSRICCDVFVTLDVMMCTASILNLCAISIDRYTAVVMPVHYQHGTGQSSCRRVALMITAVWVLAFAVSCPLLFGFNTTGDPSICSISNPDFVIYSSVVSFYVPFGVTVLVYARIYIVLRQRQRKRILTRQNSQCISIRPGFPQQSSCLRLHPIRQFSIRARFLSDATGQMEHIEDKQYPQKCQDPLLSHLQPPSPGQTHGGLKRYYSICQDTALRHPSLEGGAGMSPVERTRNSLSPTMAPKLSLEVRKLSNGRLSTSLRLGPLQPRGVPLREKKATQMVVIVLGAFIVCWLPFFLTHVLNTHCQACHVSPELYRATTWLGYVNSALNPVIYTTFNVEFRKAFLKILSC
Chain of D(2) dopamine receptor (P61169 whole entry): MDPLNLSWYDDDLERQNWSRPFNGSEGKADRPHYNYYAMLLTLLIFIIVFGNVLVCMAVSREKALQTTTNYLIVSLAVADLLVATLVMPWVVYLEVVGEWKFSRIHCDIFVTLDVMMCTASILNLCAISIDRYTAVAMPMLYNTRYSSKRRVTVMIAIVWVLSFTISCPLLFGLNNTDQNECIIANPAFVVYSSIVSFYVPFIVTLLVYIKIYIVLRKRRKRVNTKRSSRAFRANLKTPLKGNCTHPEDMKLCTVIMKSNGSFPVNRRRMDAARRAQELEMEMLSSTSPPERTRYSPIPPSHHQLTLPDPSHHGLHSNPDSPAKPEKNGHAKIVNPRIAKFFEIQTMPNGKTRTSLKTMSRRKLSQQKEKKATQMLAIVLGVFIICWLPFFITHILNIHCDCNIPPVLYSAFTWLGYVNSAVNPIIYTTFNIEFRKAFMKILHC
Description for D(3) dopamine receptor: Inhibition of [3H]-PD 128907 binding to Dopamine receptor D3 in rat ventral striatum

A word on the Ki: it is the equilibrium dissociation constant of an inhibitor or competing ligand from its target. A lower Ki goes with a stronger hold on the target. In turn, `O=C(NCCCCN1CCN2c3ccccc3CCC2C1)c1ccc2ccccc2c1` (stereo not drawn) displayed a Ki at D(2) dopamine receptor of 1570 nM. That is a single-digit micromolar value.
On to `COc1ccc2c(c1)CC[C@@H]1CN(CCN3CCC(NC(=O)c4ccc5ccccc5c4)CC3)CCN21`, for which the inhibitory constant (Ki) on D(2) dopamine receptor is greater than 50000 nM; on D(3) dopamine receptor, 4640 nM.
For `O=C(NCCCCN1CCN2c3ccccc3CC[C@@H]2C1)c1ccc2ccccc2c1`, in that order: 585 nM and 19 nM.
For `COc1ccc2c(c1)CC[C@H]1CN(CCC3CCC(NC(=O)c4ccc5ccccc5c4)CC3)CCN21` (stereo partly drawn), in that order: greater than 10000 nM and 10 nM.
For `COc1ccc2c(c1)CC[C@@H]1CN(CCCCNC(=O)c3ccc4ccccc4c3)CCN21`, in that order: greater than 100000 nM and 67 nM.
Turning to `COc1ccc2c(c1)N1CCN(CCCCNC(=O)c3ccc4ccccc4c3)C[C@@H]1CC2`, the values for the Ki on D(2) dopamine receptor and at D(3) dopamine receptor were 990 nM and 96 nM, respectively.
Turning to `COc1cccc2c1N1CCN(CCCCNC(=O)c3ccc4ccccc4c3)C[C@H]1CC2`, the Ki at D(2) dopamine receptor was determined as 312 nM. This counts as sub-micromolar.
For `COc1ccc2c(c1)CC[C@H]1CN(CCCCNC(=O)c3ccc4ccccc4c3)CCN21`, the Ki is greater than 50000 nM at D(2) dopamine receptor and 126 nM on D(3) dopamine receptor.
Regarding `COc1ccc2c(c1)CC[C@H]1CN(CCN3CCC(NC(=O)c4ccc5ccccc5c4)CC3)CCN21`, the Ki is greater than 25000 nM at D(2) dopamine receptor and 7160 nM at D(3) dopamine receptor.
Regarding `O=C(CCCN1CCN2c3ccccc3CCC2C1)c1ccc(F)cc1` (stereo not drawn), the affinity on D(2) dopamine receptor corresponds to a Ki of 243 nM.
Regarding `COc1ccc2c(c1)N1CCN(CCCCNC(=O)c3ccc4ccccc4c3)C[C@H]1CC2`, the figures for the Ki at D(2) dopamine receptor and on D(3) dopamine receptor were 1720 nM and 44 nM, respectively.
Consider `COc1cccc2c1CC[C@H]1CN(CCCCNC(=O)c3ccc4ccccc4c3)CCN21`, for which the figures for the Ki on D(2) dopamine receptor and on D(3) dopamine receptor were 659 nM and 9.3 nM, respectively.
With `COc1cccc2c1N1CCN(CCCCNC(=O)c3ccc4ccccc4c3)C[C@@H]1CC2`, the Ki on D(2) dopamine receptor was found to be 88 nM.
As for `O=C(NCCCCN1CCN2c3ccccc3CC[C@H]2C1)c1ccc2ccccc2c1`, the results for the Ki on D(2) dopamine receptor and on D(3) dopamine receptor were 180 nM and 16 nM, respectively.
On to `COc1cccc2c1CC[C@@H]1CN(CCCCNC(=O)c3ccc4ccccc4c3)CCN21`, for which the results for the Ki on D(2) dopamine receptor and at D(3) dopamine receptor were 644 nM and 8.3 nM, respectively.
For `COc1ccc2c(c1)CC[C@@H]1CN(CC[C@H]3CC[C@H](NC(=O)c4ccc5ccccc5c4)CC3)CCN21`, in that order: greater than 10000 nM and 5.7 nM.
